The NIST ThermoML archive (doi:10.1016/j.jct.2015.08.014)
Numbers after ± are expanded uncertainties.

Assay: xn = mol fraction of the nth substance listed
Conditions: 313.15 K, 100 kPa, Liquid, Alternating current cell with electrodes

CCCC[N+]1(C)CCCC1.N#CN=C=[N-] [1-butyl-1-methylpyrrolidinium dicyanamide] + O=C1CCCO1
Conditions | electrical conductivity [S/m]
Frequency=0.002 MHz, x1 = 1 | 2 ± 0.02
Frequency=0.0025 MHz, x1 = 0.0463 | 1.79 ± 0.032
Frequency=0.0025 MHz, x1 = 0.0987 | 2.72 ± 0.034
Frequency=0.0025 MHz, x1 = 0.1449 | 3.13 ± 0.033
Frequency=0.0025 MHz, x1 = 0.1859 | 3.36 ± 0.034
Frequency=0.0025 MHz, x1 = 0.2493 | 3.36 ± 0.034
Frequency=0.0025 MHz, x1 = 0.3029 | 3.315 ± 0.033
Frequency=0.0025 MHz, x1 = 0.3845 | 3.16 ± 0.032
Frequency=0.0025 MHz, x1 = 0.4985 | 2.87 ± 0.029
Frequency=0.0025 MHz, x1 = 0.6954 | 2.425 ± 0.024
Frequency=0.0025 MHz, x1 = 0.9013 | 2.09 ± 0.021
Frequency=0.0025 MHz, x1 = 1 | 2 ± 0.02
Frequency=0.003 MHz, x1 = 0.0463 | 1.79 ± 0.032
Frequency=0.003 MHz, x1 = 0.0987 | 2.72 ± 0.034
Frequency=0.003 MHz, x1 = 0.1449 | 3.13 ± 0.033
Frequency=0.003 MHz, x1 = 0.1859 | 3.36 ± 0.034
Frequency=0.003 MHz, x1 = 0.2493 | 3.36 ± 0.034
Frequency=0.003 MHz, x1 = 0.3029 | 3.316 ± 0.033
Frequency=0.003 MHz, x1 = 0.3845 | 3.16 ± 0.032
Frequency=0.003 MHz, x1 = 0.4985 | 2.87 ± 0.029
Frequency=0.003 MHz, x1 = 0.6954 | 2.425 ± 0.024
Frequency=0.003 MHz, x1 = 0.9013 | 2.09 ± 0.021
Frequency=0.003 MHz, x1 = 1 | 2 ± 0.02
Frequency=0.00347222 MHz, x1 = 0.0463 | 1.79 ± 0.032
Frequency=0.00347222 MHz, x1 = 0.0987 | 2.72 ± 0.034
Frequency=0.00347222 MHz, x1 = 0.1449 | 3.13 ± 0.033
Frequency=0.00347222 MHz, x1 = 0.1859 | 3.37 ± 0.034
Frequency=0.00347222 MHz, x1 = 0.2493 | 3.36 ± 0.034
Frequency=0.00347222 MHz, x1 = 0.3029 | 3.317 ± 0.033
Frequency=0.00347222 MHz, x1 = 0.3845 | 3.16 ± 0.032
Frequency=0.00347222 MHz, x1 = 0.4985 | 2.87 ± 0.029
Frequency=0.00347222 MHz, x1 = 0.6954 | 2.425 ± 0.024
Frequency=0.00347222 MHz, x1 = 0.9013 | 2.09 ± 0.021
Frequency=0.00347222 MHz, x1 = 1 | 2 ± 0.02
Frequency=0.004 MHz, x1 = 0.0463 | 1.79 ± 0.032
Frequency=0.004 MHz, x1 = 0.0987 | 2.73 ± 0.034
Frequency=0.004 MHz, x1 = 0.1449 | 3.13 ± 0.033
Frequency=0.004 MHz, x1 = 0.1859 | 3.37 ± 0.034
Frequency=0.004 MHz, x1 = 0.2493 | 3.36 ± 0.034
Frequency=0.004 MHz, x1 = 0.3029 | 3.318 ± 0.033
Frequency=0.004 MHz, x1 = 0.3845 | 3.16 ± 0.032
Frequency=0.004 MHz, x1 = 0.4985 | 2.88 ± 0.029
Frequency=0.004 MHz, x1 = 0.6954 | 2.426 ± 0.024
Frequency=0.004 MHz, x1 = 0.9013 | 2.09 ± 0.021
Frequency=0.004 MHz, x1 = 1 | 2 ± 0.02
Frequency=0.00446429 MHz, x1 = 0.0463 | 1.79 ± 0.032
Frequency=0.00446429 MHz, x1 = 0.0987 | 2.73 ± 0.034
Frequency=0.00446429 MHz, x1 = 0.1449 | 3.13 ± 0.033
Frequency=0.00446429 MHz, x1 = 0.1859 | 3.37 ± 0.034
Frequency=0.00446429 MHz, x1 = 0.2493 | 3.36 ± 0.034
Frequency=0.00446429 MHz, x1 = 0.3029 | 3.318 ± 0.033
Frequency=0.00446429 MHz, x1 = 0.3845 | 3.16 ± 0.032
Frequency=0.00446429 MHz, x1 = 0.4985 | 2.88 ± 0.029
Frequency=0.00446429 MHz, x1 = 0.6954 | 2.426 ± 0.024
Frequency=0.00446429 MHz, x1 = 0.9013 | 2.09 ± 0.021
Frequency=0.00446429 MHz, x1 = 1 | 2 ± 0.02
Frequency=0.005 MHz, x1 = 0.0463 | 1.79 ± 0.032
Frequency=0.005 MHz, x1 = 0.0987 | 2.73 ± 0.034
Frequency=0.005 MHz, x1 = 0.1449 | 3.13 ± 0.033
Frequency=0.005 MHz, x1 = 0.1859 | 3.37 ± 0.034
Frequency=0.005 MHz, x1 = 0.2493 | 3.36 ± 0.034
Frequency=0.005 MHz, x1 = 0.3029 | 3.319 ± 0.033
Frequency=0.005 MHz, x1 = 0.3845 | 3.16 ± 0.032
Frequency=0.005 MHz, x1 = 0.4985 | 2.88 ± 0.029
Frequency=0.005 MHz, x1 = 0.6954 | 2.426 ± 0.024
Frequency=0.005 MHz, x1 = 0.9013 | 2.09 ± 0.021
Frequency=0.005 MHz, x1 = 1 | 2 ± 0.02
Frequency=0.005454 MHz, x1 = 0.0463 | 1.79 ± 0.032
Frequency=0.005454 MHz, x1 = 0.0987 | 2.73 ± 0.034
Frequency=0.005454 MHz, x1 = 0.1449 | 3.13 ± 0.033
Frequency=0.005454 MHz, x1 = 0.1859 | 3.37 ± 0.034
Frequency=0.005454 MHz, x1 = 0.2493 | 3.36 ± 0.034
Frequency=0.005454 MHz, x1 = 0.3029 | 3.319 ± 0.033
Frequency=0.005454 MHz, x1 = 0.3845 | 3.16 ± 0.032
Frequency=0.005454 MHz, x1 = 0.4985 | 2.88 ± 0.029
Frequency=0.005454 MHz, x1 = 0.6954 | 2.426 ± 0.024
Frequency=0.005454 MHz, x1 = 0.9013 | 2.09 ± 0.021
Frequency=0.005454 MHz, x1 = 1 | 2 ± 0.02
Frequency=0.006 MHz, x1 = 0.0463 | 1.79 ± 0.032
Frequency=0.006 MHz, x1 = 0.0987 | 2.73 ± 0.034
Frequency=0.006 MHz, x1 = 0.1449 | 3.13 ± 0.033
Frequency=0.006 MHz, x1 = 0.1859 | 3.37 ± 0.034
Frequency=0.006 MHz, x1 = 0.2493 | 3.36 ± 0.034
Frequency=0.006 MHz, x1 = 0.3029 | 3.32 ± 0.033
Frequency=0.006 MHz, x1 = 0.3845 | 3.16 ± 0.032
Frequency=0.006 MHz, x1 = 0.4985 | 2.88 ± 0.029
Frequency=0.006 MHz, x1 = 0.6954 | 2.43 ± 0.025
Frequency=0.006 MHz, x1 = 0.9013 | 2.09 ± 0.021
Frequency=0.006 MHz, x1 = 1 | 2 ± 0.02
Frequency=0.00652174 MHz, x1 = 0.0463 | 1.79 ± 0.032
Frequency=0.00652174 MHz, x1 = 0.0987 | 2.73 ± 0.034
Frequency=0.00652174 MHz, x1 = 0.1449 | 3.13 ± 0.033
Frequency=0.00652174 MHz, x1 = 0.1859 | 3.37 ± 0.034
Frequency=0.00652174 MHz, x1 = 0.2493 | 3.36 ± 0.034
Frequency=0.00652174 MHz, x1 = 0.3029 | 3.32 ± 0.033
Frequency=0.00652174 MHz, x1 = 0.3845 | 3.16 ± 0.032
Frequency=0.00652174 MHz, x1 = 0.4985 | 2.88 ± 0.029
Frequency=0.00652174 MHz, x1 = 0.6954 | 2.43 ± 0.025
Frequency=0.00652174 MHz, x1 = 0.9013 | 2.09 ± 0.021
Frequency=0.00652174 MHz, x1 = 1 | 2 ± 0.02
Frequency=0.00694444 MHz, x1 = 0.0463 | 1.79 ± 0.032
Frequency=0.00694444 MHz, x1 = 0.0987 | 2.73 ± 0.034
Frequency=0.00694444 MHz, x1 = 0.1449 | 3.13 ± 0.033
Frequency=0.00694444 MHz, x1 = 0.1859 | 3.37 ± 0.034
Frequency=0.00694444 MHz, x1 = 0.2493 | 3.36 ± 0.034
Frequency=0.00694444 MHz, x1 = 0.3029 | 3.32 ± 0.033
Frequency=0.00694444 MHz, x1 = 0.3845 | 3.16 ± 0.032
